Results taken from patent publication US20220289765A1, “CRYSTAL OF CARCINOGENIC FUSED KINASE INHIBITOR AND APPLICATIONS THEREOF” (Simcere Pharmaceutical Co., Ltd., priority 2019, published 2022).
Like-named read-outs stand apart in the source and are kept apart here.

How the values were obtained:
[1] = Pharmacokinetic test in mice; format: in vivo; details: mouse, plasma; PO (10 mL/kg [sic]) vs IV 3 mg/kg, male CD-1 mice; read-out: Bioavailability F %
Experimental: The drug concentrations of the compounds in plasma at different time points were determined by LC/MS/MS method after single intravenous (IV) and intragastric (PO) administration of the compounds to 7-9 week old male CD-1 mice as the test animals. The pharmacokinetic behaviors of the compounds of the present invention in mice were studied and pharmacokinetic properties thereof were evaluated.
The compounds were prepared into clear solutions using 5% DMSO+10% solutol+85% water as a solvent for administration in IV (intravenous injection) and PO (gavage) groups. The administration dosage of each compound was 3 mg/kg for the IV group and […] for the PO group.

[2] = Cassette pharmacokinetic test in mice (plasma, brain, CSF); format: in vivo, male CD-1 mice
Experimental: The pharmacokinetic behaviors of the compounds of the present invention in mice were studied and the pharmacokinetic properties thereof were evaluated.

[3] = Accelerated stability test of solid; format: physicochemical; details: for Purity: HPLC area purity
Source text: Samples were respectively taken at 1 month, 2 months and 3 months to test the solid chemical purity (HPLC area purity) and crystal form.

[4] = Solid stability test, influence factors (high temperature, high humidity); format: physicochemical
Experimental: The sample placed under a high temperature condition was sealed and left to stand in a stability test chamber at 60° C. After 10 days, the sample was taken and tested for solid purity and crystal form. The sample placed under a high humidity condition was left to stand at room temperature and 92.5% RH humidity (the mouth of the sample bottle was wrapped with a layer of sealing film and 15˜20 small holes were evenly punched in the sealing film), and the samples were taken and tested for solid purity and crystal form after 5 days/10 days, respectively.

[5] = PO @ 3 mpk, cassette, brain, 2 h
[6] = mouse, plasma, 1 mg/kg, IV @ 1 mpk, cassette, male CD-1 mice, read-out: Apparent Distribution Volume Vd
[7] = mouse, plasma, 1 mg/kg, IV @ 1 mpk, cassette, male CD-1 mice, read-out: Area under Curve AUC0-inf
[8] = mouse, plasma, 1 mg/kg, IV @ 1 mpk, cassette, male CD-1 mice, read-out: Half-life T1/2 (converted)
[9] = mouse, plasma, 1 mg/kg, IV @ 1 mpk, cassette, male CD-1 mice, read-out: Initial Concentration C0
[10] = mouse, plasma, 3 mg/kg, PO @ 3 mpk vs IV @ 1 mpk, cassette, male CD-1 mice, read-out: Bioavailability F %
[11] = mouse, plasma, 3 mg/kg, PO @ 3 mpk, cassette, male CD-1 mice, read-out: Area under Curve AUC0-inf
[12] = mouse, plasma, 3 mg/kg, PO @ 3 mpk, cassette, male CD-1 mice, read-out: Peak Concentration Cmax
[13] = mouse, plasma, 3 mg/kg, PO @ 3 mpk, cassette, male CD-1 mice, read-out: Time to Peak Tmax
[14] = male, CD-1, mouse, in vivo, iv, 1 mg/kg
[15] = male, CD-1, mouse, in vivo, po, 3 mg/kg
[16] = Room temperature/92.5% RH, 5 days
[17] = Room temperature/92.5% RH, 10 days

With `C[C@@H]1CCc2ncc(F)cc2[C@H]2CCCN2c2ccn3ncc(c3n2)C(=O)N1` [LOXO-195, reference compound] the bioavailability [1] was 74%.

With `O=C(Nc1cnn2ccc(N3CCC[C@@H]3c3cc(F)ccc3F)nc12)N1CC[C@H](O)C1` [LOXO-101, Larotrectinib] the bioavailability [1] was 28%, the “Drug Concentration in Cerebrospinal Fluid at 0.5 h” value ([2]; PO @ 3 mpk, cassette, CSF) was 15 nmol/kg and the “Drug Concentration in Cerebrospinal Fluid at 2 h” value ([2]; PO @ 3 mpk, cassette, CSF, 2 h) was 3 nmol/kg. The “Drug Concentration in Brain at 0.5 h” value ([2]; PO @ 3 mpk, cassette, brain) was 40 nmol/kg, the “Drug Concentration in Brain at 2 h” value [2, 5] was 20 nmol/kg and the Vd [2, 6] was 1.57 L/kg. For the same molecule, the AUC(0-inf) [2, 7] was 1.72 µM·h, the half-life [2, 8] was 72.6 min and the C0 [2, 9] was 2380 nM. The bioavailability [2, 10] was 51%, the AUC(0-inf) [2, 11] was 2.72 µM·h and the Cmax [2, 12] was 1350 nM. For the same molecule, the Tmax [2, 13] was 30 min.

With `C[C@H]1CNC(=O)c2cnn3ccc(nc23)N[C@H](C)c2cc(F)ccc2O1` [TPX-0005] the “Drug Concentration in Cerebrospinal Fluid at 0.5 h” value ([2]; PO @ 3 mpk, cassette, CSF) was 8 nmol/kg, the “Drug Concentration in Brain at 0.5 h” value ([2]; PO @ 3 mpk, cassette, brain) was 50 nmol/kg and the “Drug Concentration in Brain at 2 h” value [2, 5] was 41 nmol/kg. For the same molecule, the Vd [2, 6] was 2.63 L/kg, the AUC(0-inf) [2, 7] was 2.86 µM·h and the half-life [2, 8] was 221 min. It also gave a C0 [2, 9] of 2250 nM, a bioavailability [2, 10] of 64% and an AUC(0-inf) [2, 11] of 5.49 µM·h. For the same molecule, the Cmax [2, 12] was 1540 nM and the Tmax [2, 13] was 45 min.

In the case of `CN1CCN(c2ccc(C(=O)Nc3n[nH]c4ccc(Cc5cc(F)cc(F)c5)cc34)c(NC3CCOCC3)c2)CC1` [RXDX-101, Entrectinib], the AUC(0-inf) [2, 14] is reported as 3.77 µM·h, the C0 [2, 14] is reported as 2810 nM and the Vd [2, 14] is reported as 1.24 L/kg. It also gave a half-life [2, 14] of 116 min, an AUC(0-inf) [2, 15] of 3.26 µM·h and a Cmax [2, 15] of 586 nM. For the same molecule, the Tmax [2, 15] was 45 min, the bioavailability [2, 15] was 23% and the “Drug Concentration in Brain at 2 h” value ([2]; male, CD-1, mouse, in vivo, po, 3 mg/kg, 2 h) was 30 nmol/kg.

In the case of `O=C1NC2(CC2)COc2ncc(F)cc2[C@H]2CCON2c2ccn3ncc1c3n2`, the “Relative Purity*” value ([3]; 40° C./75% RH, 1 month) is reported as 100.0, the Purity ([3]; 40° C./75% RH, 1 month) is reported as 100.0 and the “Relative Purity*” value ([3]; 40° C./75% RH, 2 months) is reported as 100.0. The Purity ([3]; 40° C./75% RH, 2 months) was 100.0, the “Relative Purity*” value ([3]; 40° C./75% RH, 3 months) was 100.0 and the Purity ([3]; 40° C./75% RH, 3 months) was 100.0. For the same molecule, the “Relative Purity*” value ([3]; 60° C./75% RH, 1 month) was 99.9, the Purity ([3]; 60° C./75% RH, 1 month) was 99.9 and the “Relative Purity*” value ([3]; 60° C./75% RH, 2 months) was 100.0. The Purity ([3]; 60° C./75% RH, 2 months) was 100.0, the “Relative Purity*” value ([3]; 60° C./75% RH, 3 months) was 100.0 and the Purity ([3]; 60° C./75% RH, 3 months) was 100.0. For the same molecule, the “Test Results Purity” value ([4]; 60° C, sealed, 10 days) was 100.0%, the “Test Results Crystal Form” value ([4]; 60° C, sealed, 10 days, XRPD) was “Crystal Form C” and the “Test Results Relative Purity*” value ([4]; 60° C, sealed, 10 days, purity of stability sample/purity of starting sample x100%) was 100.0%. For the same molecule, the “Test Results Crystal Form” value [4, 16] was “Crystal Form C”, the “Test Results Purity” value [4, 16] was 100.0% and the “Test Results Relative Purity*” value [4, 16] was 100.0%. The “Test Results Crystal Form” value [4, 17] was “Crystal Form C”, the “Test Results Purity” value [4, 17] was 100.0% and the “Test Results Relative Purity*” value [4, 17] was 100.0%.
